Measurements taken from patent US5986131A, “RXR selective ligands” (Hoffmann-La Roche Inc., priority 1997, dated 1999).
“Also recorded” adds a separate entry of the source. Like-named read-outs stand apart in the source and are kept apart here.

Tests used:
Assay type in all cases: cell-based
[1] = target: T1, RARα (Homo sapiens, UniProt P10276); experiment: RARα activation (transactivation)
T1 sequence (P10276 1-462): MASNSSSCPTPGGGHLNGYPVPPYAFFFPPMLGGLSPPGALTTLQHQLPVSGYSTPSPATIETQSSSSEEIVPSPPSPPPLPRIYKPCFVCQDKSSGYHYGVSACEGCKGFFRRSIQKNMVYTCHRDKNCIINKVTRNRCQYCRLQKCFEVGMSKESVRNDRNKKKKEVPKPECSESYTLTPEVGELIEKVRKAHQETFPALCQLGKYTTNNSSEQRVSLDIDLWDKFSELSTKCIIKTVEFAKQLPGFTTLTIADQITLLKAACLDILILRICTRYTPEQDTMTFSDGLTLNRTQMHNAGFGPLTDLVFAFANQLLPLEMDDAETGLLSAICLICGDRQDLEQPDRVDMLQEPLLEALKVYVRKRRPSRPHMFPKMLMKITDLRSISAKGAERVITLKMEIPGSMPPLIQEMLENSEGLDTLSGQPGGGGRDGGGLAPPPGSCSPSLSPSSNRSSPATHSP
Excerpt: Methods essentially as described in those publications were used to determine the binding and transactivation properties of retinoids reported in the Examples herein.

[2] = test system: mouse B cell; experiment: Inhibition of LPS-induced mouse B cell proliferation (3H-thymidine incorporation)
Experimental: Single cell suspensions of mouse spleen were set up in culture in flatbottomed 96 well Microtiter trays, 0.2 ml/well of a 2×10^5 /ml cell suspension in IMDM supplemented with 10% foetal calf serum, HEPES, antibiotics and 50 μM 2-mercaptoethanol. The specific B cell mitogen E. coli lipopolysaccharide (DIFCO) (LPS) was added at 50μg/ml. Cultures were incubated at 37° C. in a humidified atmosphere and 5% CO2.
The retinoids to be tested were first titrated in triplicate from 10 nM to 10 μM and left throughout the whole culture period. […] Cyclosporin A (Sandoz AG) was used as a reference compound (from 1 nM to 1 μM).
The cultures were then harvested on glass fiber filters and the radioactivity imcorporated into DNA measured in a β-liquid scintillation counter (Betaplate, Wallac Oy, Turku, Finland).
The results are expressed as % of the response of untreated cultures. […] Retinoids were added to the cultures at the beginning of the culture period.

[3] = test system: human sebaceous cells; experiment: Antiproliferative activity on human sebocytes in vitro
Experimental: Sebaceous cells were isolated from adult human sebaceous glands by a combination of enzymatic and mechanical methods (Doran et al., 1991). The cells were cultured in Iscove's medium containing 10% fetal calf serum and 4 μg/ml dexamethasone on a layer of growth-arrested 3T3 mouse fibroblasts. Cells were plated in medium without the test compound and then given test compound in fresh medium 24-48 hours after the initial plating. The cultures were given fresh medium, containing the test compound, every 48 hours. On the day of harvesting, the cultures were rinsed with 0.03% EDTA in PBS, to remove only the 3T3 fibroblasts. followed by incubation in 0.05% trypsin/0.03% EDTA. The cells were suspended, mixed vigorously to prepare a single cell suspension and counted in a hemocytometer.
Stock solutions of compounds were made up as 10^-2 M solutions in 100% DMSO and stored at -20° C. in the dark. Compounds in solution were brought to room temperature and used by diluting directly into complete medium to the appropriate concentration.
The compounds of Example 12, Example 2, and Example 4 were tested for their effects on inhibiting the proliferation of first passage human sebaceous cells in vitro after 10 days of exposure to drug.

Structure (SMILES): CC1=C(/C=C/C2=C(/C=C/C(C)=C/C(=O)O)CCCC2)C(C)(C)CCC1 [Example 4, (2E,4E)-3-Methyl-5-(2-((E)-2(2,6,6-trimethyl-1-cyclohexen-1-yl)ethenyl)-1-cyclohexen-1-yl)-2,4-pentadienoic acid]
- EC50 ([1]; Table 1, read-out: Activation ED50, RARα): > 10 µM
- EC50 ([1]; Table 2, read-out: RARα activation ED50): > 10 µM
- potency relative to all-trans RA ([2]; LPS induced mouse B cell proliferation): 1/100
- IC50 ([2]; Mus musculus, B-cell, 72 h, alone, FIG. 4, day 3): 0.1 µM
- effect on B cell response at low doses ([2]; day 4, low doses (=IC50 at day 3)): slightly enhancing the response
- potentiation of inhibitory activity of all-trans RA on mouse B cell proliferation ([2]; in combination with all-trans RA): potentiated the inhibitory activity of all-trans RA; also recorded: potentiates the effect of all-trans RA
- inhibition by combination with 1 nM RA ([2]; with 1 nM RA, day 4, FIG. 6): inhibition on the order of that induced by 10 nM RA
- potentiation of effect of 1 nM all-trans RA ([2]; with 1 nM all-trans RA, day 3, FIG. 5): potentiation of the effect of 1 nM RA to the level observed with 10 nM RA
- excess RXR ligand over all-trans RA for potentiation ([2]; with all-trans RA): 10 to 30 fold
- magnitude of the potentiation ([2]; with all-trans RA): roughly tenfold
- inhibition of sebocyte proliferation (in words) [3]: poor dose response curve; also recorded: much weaker than 13-cis-retinoic acid
- IC50 ([3]; Homo sapiens, 240 h, first passage cells, 10 days of exposure, read-out: Inhibition of human sebaceous cell proliferation in vitro IC50): > 1 µM
